Data published in US20110240014A1, “SUBSTRATES FOR DRUG DELIVERY DEVICE AND METHODS OF PREPARING AND USE” (ALEXZA PHARMACEUTICALS, INC., priority 2003, published 2011).
Entries after “also recorded” stand apart in the source; their conditions may differ. Each block holds one molecule with its values, some of them ahead of it.

Tests used:
[1] = Vaporization of budesonide film from clean and treated steel foils 304, T-430 and zirconium oxide coated 304; aerosol purity, yield and recovery by HPLC; type: physicochemical; conditions: in all cases (all foils of Example 5)
Description: Generation of budesonide aerosol from clean and treated steel foils 304 and T-430. […] All foils were dip-coated with a budesonide solution in dichloromethane.

[2] = Vaporization of bumetanide film from heat-treated, nitric acid-treated and non-treated 304 stainless steel foil; aerosol purity, yield and recovery by HPLC; conditions: for mass recovered from the filter / percent yield (recovered from the filter) / total mass recovered from the filter, test apparatus and substrate / Purity of the drug aerosol particles: coating 1.4 μm, 0.77 mg applied; for Purity of the drug aerosol particles: peak about 320° C.
[3] = Vaporization of flunisolide film from stainless steel foil substrates (304, T-430, zirconium oxide coated 304); aerosol purity, yield and recovery by HPLC; conditions: for Purity of the drug aerosol particles: peak about 350° C.
[4] = Vaporization of eletriptan film from heat-treated and non-treated 304 stainless steel foil; aerosol purity, yield and recovery by HPLC; type: physicochemical; conditions: for mass recovered from the filter / percent yield (recovered from the filter) / total mass recovered from the filter, test apparatus and substrate / Purity of the drug aerosol particles: film thickness 4.2 μm, 2.26 mg applied; for Purity of the drug aerosol particles: peak about 450° C.
[5] = acid-treated (nitric acid) substrate
[6] = 0.5 μm coating on the heat-treated substrate
[7] = 1.5 μm coating on the non-treated substrate
[8] = heat-treated substrate 304, film thickness 0.5 μm, 0.253 mg applied
[9] = heat-treated substrate 304, film thickness 1.5 μm, 0.443 mg applied
[10] = non-treated substrate 304, film thickness 0.9 μm, 0.485 mg applied
[11] = non-treated substrate T-430, film thickness 1.3 μm, 0.68 mg applied
[12] = substrate 304 (treatment not stated), film thickness 1.2 μm, 0.65 mg applied
[13] = zirconium oxide coated substrate 304, film thickness 0.8 μm, 0.44 mg applied

quantity of drug remaining on the foil after vaporization [1]: less than 5 % of the loaded dose
Structure (SMILES): CCCC1O[C@@H]2C[C@H]3[C@@H]4CCC5=CC(=O)C=C[C@]5(C)[C@H]4[C@@H](O)C[C@]3(C)[C@]2(C(=O)CO)O1 (some centres unmarked) [budesonide]

mass recovered from the filter [2, 5]: 0.41 mg | percent yield (recovered from the filter) [2, 5]: 53% | total mass recovered from the filter, test apparatus and substrate [2, 5]: 0.42 mg | Purity of the drug aerosol particles [2, 5]: 98.3% | Purity of the drug aerosol particles ([2]; heat-treated substrate (350° C., 6 hours)): 99.3% | mass recovered from the filter ([2]; heat-treated substrate): 0.40 mg | percent yield (recovered from the filter) ([2]; heat-treated substrate): 52% | total mass recovered from the filter, test apparatus and substrate ([2]; heat-treated substrate): 0.41 mg | quantity of drug remaining on the foil after vaporization ([2]; in all cases (all foils of Example 4)): less than 5 % of the loaded dose | mass recovered from the filter ([2]; non-treated substrate): 0.37 mg | percent yield (recovered from the filter) ([2]; non-treated substrate): 48% | total mass recovered from the filter, test apparatus and substrate ([2]; non-treated substrate): 0.37 mg | Purity of the drug aerosol particles ([2]; non-treated substrate): 97.9%
Structure (SMILES): CCCCNc1cc(C(=O)O)cc(S(N)(=O)=O)c1Oc1ccccc1 [bumetanide]

aerosol particles yielded [3, 6]: about 0.3 mg | coated dose emitted from the test apparatus [3, 6]: 97%-100 | aerosol particles yielded [3, 7]: 0.2 mg | coated dose emitted from the test apparatus [3, 7]: about 25% | purity of thermal vapor ([3]; heat-treated 304 substrate, film thickness about 0.2 μm (FIG. 6)): about 93% | change of aerosol purity (in words) ([3]; heat-treated T-430 foils versus non-treated T-430): no marked improvement | mass recovered from the filter [3, 8]: 0.253 mg | percent yield (recovered from the filter) [3, 8]: 100% | total mass recovered from the test apparatus and substrate [3, 8]: 0.253 mg | Purity of the drug aerosol particles [3, 8]: 94.4% | mass recovered from the filter [3, 9]: 0.255 mg | percent yield (recovered from the filter) [3, 9]: 57.5% | total mass recovered from the test apparatus and substrate [3, 9]: 0.265 mg | Purity of the drug aerosol particles [3, 9]: 76.5% | purity of thermal vapor ([3]; heat-treated substrate, film thickness about 0.2 or 0.5 μm): about 93% | purity of thermal vapor ([3]; heat-treated substrate, film thickness about 2.6 μm): 83% | quantity of drug remaining on the foil after vaporization ([3]; in all cases (all foils of Example 1)): less than 15 % of the loaded dose | purity of thermal vapor ([3]; non-treated 304 substrate, film thickness about 0.2 μm (FIG. 6)): about 50% | mass recovered from the filter [3, 10]: 0.206 mg | percent yield (recovered from the filter) [3, 10]: 42.4% | total mass recovered from the test apparatus and substrate [3, 10]: 0.210 mg | Purity of the drug aerosol particles [3, 10]: 36.3% | mass recovered from the filter [3, 11]: 0.47 mg | percent yield (recovered from the filter) [3, 11]: 69.1% | total mass recovered from the test apparatus and substrate [3, 11]: 0.51 mg | Purity of the drug aerosol particles [3, 11]: 82.8% | purity of thermal vapor ([3]; non-treated substrate, film thickness about 1.5 μm): 38% | mass recovered from the filter [3, 12]: 0.161 mg | percent yield (recovered from the filter) [3, 12]: 24.7% | total mass recovered from the test apparatus and substrate [3, 12]: 0.172 mg | Purity of the drug aerosol particles [3, 12]: 30.2% | mass recovered from the filter [3, 13]: 0.246 mg | percent yield (recovered from the filter) [3, 13]: 55.9% | total mass recovered from the test apparatus and substrate [3, 13]: 0.31 mg | Purity of the drug aerosol particles [3, 13]: 90.0%
Structure (SMILES): CC1(C)O[C@@H]2C[C@H]3[C@@H]4C[C@H](F)C5=CC(=O)C=C[C@]5(C)[C@H]4[C@@H](O)C[C@]3(C)[C@]2(C(=O)CO)O1 [flunisolide]
vapor purity (in words) ([3]; clean, non-treated T-430 steel foil, compared with non-treated 304 (FIG. 7)): good vapor purities; also recorded: improved purities; also recorded: very good purities | change of aerosol purity (in words) ([3]; heat-treated versus non-treated 304 substrates, films 0.2 μm to 2.6 μm (FIG. 6)): marked improvement; also recorded: marked increase | vapor purity (in words) ([3]; zirconium oxide coated 304 steel foil, without heat treatment (FIG. 7)): good aerosol purities; also recorded: improved purities; also recorded: very good vapor purities

mass recovered from the filter ([4]; heat-treated 304 substrate): 1.78 mg | percent yield (recovered from the filter) ([4]; heat-treated 304 substrate): 78.9% | total mass recovered from the filter, test apparatus and substrate ([4]; heat-treated 304 substrate): 1.79 mg | Purity of the drug aerosol particles ([4]; heat-treated 304 substrate): 95.6% | change of aerosol purity (in words) ([4]; heat-treated versus non-treated foils, films between 4.0 and 9.5 μm (FIG. 8)): increase | quantity of drug remaining on the foil after vaporization ([4]; in all cases (all foils of Example 2)): less than 15 % of the loaded dose | mass recovered from the filter ([4]; non-treated 304 substrate): 1.647 mg | percent yield (recovered from the filter) ([4]; non-treated 304 substrate): 72.9% | total mass recovered from the filter, test apparatus and substrate ([4]; non-treated 304 substrate): 1.65 mg | Purity of the drug aerosol particles ([4]; non-treated 304 substrate): 92.8%
Structure (SMILES): CN1CCC[C@@H]1Cc1c[nH]c2ccc(CCS(=O)(=O)c3ccccc3)cc12 [eletriptan]
